Test results published in US20080064725A1, “INTRATHECAL ADMINISTRATION OF TRIPTAN COMPOSITIONS TO TREAT NON-MIGRAINE PAIN” (priority 2006, published 2008).

Assays:
CD1 male mice [1] = experiment: hot plate test of acute thermal pain; type: in vivo
CD1 male mice [2] = experiment: radiant heat to the hindpaw (Hargreaves test), baseline thresholds; type: in vivo
CD1 male mice [3] = experiment: mechanical nociceptive thresholds with calibrated monofilaments, baseline; type: in vivo
CD1 male mice [4] = experiment: spared nerve injury (SNI) model of neuropathic pain; type: in vivo
Experimental: Spared nerve injury (SNI) model of neuropathic pain. A model of partial sciatic nerve injury was used in which the peroneal and sural nerves were selectively ligated and cut, sparing the tibial nerve. […] Animals were injected in a blinded cross-over manner, in which half of the animals received sumatriptan on one day and saline on the other.

CD1 male mice [5] = experiment: formalin test of pain behavior
CD1 male mice [6] = experiment: carrageenan-induced thermal and mechanical hypersensitivity
CD1 male mice [7] = experiment: Rotarod test for sedative and sensorimotor effects; type: in vivo; settings: SC 300, 600 μg/kg or IT 0.06, 0.60 μg; one hour after dosing
Experimental: To screen for sedative and other adverse sensorimotor effects, mice were tested on a Rotarod (Ugo Basile, Comerio, Italy). The time in which mice were able to balance on a rod rotating on its axis at a constant velocity of 15 rpm were measured. The total duration of each trial was 300 sec. On the day prior to the test, animals accommodated to the task with three separate training trials. […] A single trial was used for each dose and route; reported times represent % change from the baseline value for each animal ±SEM.

CD1 male mice [8] = experiment: CFA-induced persistent inflammation, mechanical hyperalgesia; type: in vivo; settings: IT 0.0006, 0.006, 0.01, 0.06 μg; days 3-7 after CFA
Experimental: Intrathecal sumatriptan reduces the hyperalgesic effects of persistent inflammation induced by Complete Freunds Agent (CFA). CFA injection produces a prolonged period of mechanical hyperalgesia that persists and remains stable during days 3-7 after injection into the plantar surface of the hindpaw. CD1 male mice were used. Mechanical thresholds were tested on the first day, prior to a single injection of CFA to a hindpaw (baseline). By day 3 after CFA injection animals were hyperalgesic (post CFA 3d). Animals were tested for a sumatriptan response on 4 successive days (days 3-6) after CFA. A mechanical threshold was determined on each successive day prior to the administration of intrathecal sumatriptan. Doses of sumatriptan tested are: 0.0006 μg, 0.006 μg, 0.01 μg, and 0.06 μg, all in the volume of 5 μl. Mechanical thresholds were then determined at 30 and 60 min after the injection. The average withdrawal thresholds for the CFA-treated hindpaw at […] after the administration of each dose of sumatriptan was measured. The antihyperalgesic effect of each of these doses, expressed as a percent of the pre-injection threshold for that day, were compared to the original baseline.
Persistent inflammation after CFA. […] Hindpaw swelling pre- and 72 hours postinjection was measured to confirm the effects of the injection.

[9] = sumatriptan SC 300, 600 μg/kg or IT 0.06, 0.60 μg, unstimulated baseline state
[10] = intrathecal, 24 hours after carrageenan to hindpaw, dose-dependent

CN1CC[C@]23c4c5ccc(O)c4O[C@H]2[C@@H](O)C=C[C@H]3[C@H]1C5.O=S(=O)(O)O [morphine, morphine sulfate] was tested, and the “hot-plate test analgesic response” value (CD1 male mice [1]; positive control, 10 nmol IT) was “robust analgesic response”, the “Hargreaves test analgesic response” value (CD1 male mice [2]; positive control, 10 nmol IT) was “robust analgesic response” and the “mechanical pain test analgesic response” value (CD1 male mice [3]; positive control, 10 nmol IT) was “robust analgesic response”. The “analgesia in SNI model” value (CD1 male mice [4]; IT morphine) was “profound analgesia, to cutoff latencies”, the “formalin test, first phase pain behavior” value (CD1 male mice [5]; positive control, 10 nmol IT) was “eliminated” and the “formalin test, second phase pain behavior” value (CD1 male mice [5]; positive control, 10 nmol IT) was “eliminated”. The “analgesia in carrageenan model” value (CD1 male mice [6]; IT morphine) was “profound analgesia, with all animals reaching the cutoff latency”.

For CNS(=O)(=O)Cc1ccc2[nH]cc(CCN(C)C)c2c1 [sumatriptan], the “hot-plate test threshold (latency)” value (CD1 male mice [1]; [9]) was “no significant changes in threshold”, the “Hargreaves test (radiant heat to hindpaw) threshold” value (CD1 male mice [2]; [9]) was “no significant changes in threshold” and the “mechanical pain threshold, calibrated monofilaments” value (CD1 male mice [3]; [9]) was “no significant changes in threshold”. For the same compound, the “sedation or sensorimotor incoordination on the Rotarod test” value (CD1 male mice [7]) was “no evidence of confounding deficits due to sedation or sensorimotor incoordination”, the “mechanical hypersensitivity produced by nerve injury (SNI)” value (CD1 male mice [4]; SNI 7 d, regardless of dose or route of delivery, IT 0.6 μg, 30-120 min after drug) was “completely without effect” and the “nociceptive thresholds of unaffected contralateral leg” value (CD1 male mice [4]; SNI model, IT sumatriptan) was “unaffected”. For the same compound, the “mechanical hypersensitivity after intraplantar CFA” value (CD1 male mice [8]) was “reduced mechanical hypersensitivity”, the “formalin test, second phase (11-60 min) pain behavior” value (CD1 male mice [5]; IT 0.006, 0.06, 0.60 μg one hour before formalin, dose-dependent) was “profound reduction of pain behavior” and the “formalin test, second phase pain behavior” value (CD1 male mice [5]; systemic (SC) 300, 600 μg/kg one hour before formalin) was “modestly reduced second phase behaviors, but only at the highest dose tested”. The “time after injection at which antinociceptive effect was significant” value (CD1 male mice [6]; IT sumatriptan, carrageenan model) was 30 min, the “behavior after carrageenan, SC drug compared with control IT saline” value (CD1 male mice [6]; SC sumatriptan) was “did not differ” and the “pain thresholds of unstimulated contralateral hindlimb” value (CD1 male mice [6]; carrageenan model, sumatriptan) was “did not affect pain thresholds”. The “thermal latencies versus baseline (analgesic effect beyond reversal of hyperalgesia)” value (CD1 male mice [6]; intrathecal sumatriptan, carrageenan-treated hindpaw) was “latencies exceeded those at baseline”, the “mechanical hypersensitivity after carrageenan” value (CD1 male mice [6]; [10]) was “completely reversed” and the “thermal hypersensitivity after carrageenan” value (CD1 male mice [6]; [10]) was “completely reversed”.
